Results: US20040024024A1, “Aromatic sulfone hydroxamates and their use as protease inhibitors” (priority 2001, published 2004)

Columns and labels:
[1] = biological target: T1, Human recombinant MMP-2 (Homo sapiens, UniProt P08253); experiment: In vitro MMP inhibition, Ki determination (fluorogenic substrate II); format: biochemical
T1 construct: made in house; host or cells: MMP-2-transfected p2AHT2 cells
T1 sequence (P08253 110-660): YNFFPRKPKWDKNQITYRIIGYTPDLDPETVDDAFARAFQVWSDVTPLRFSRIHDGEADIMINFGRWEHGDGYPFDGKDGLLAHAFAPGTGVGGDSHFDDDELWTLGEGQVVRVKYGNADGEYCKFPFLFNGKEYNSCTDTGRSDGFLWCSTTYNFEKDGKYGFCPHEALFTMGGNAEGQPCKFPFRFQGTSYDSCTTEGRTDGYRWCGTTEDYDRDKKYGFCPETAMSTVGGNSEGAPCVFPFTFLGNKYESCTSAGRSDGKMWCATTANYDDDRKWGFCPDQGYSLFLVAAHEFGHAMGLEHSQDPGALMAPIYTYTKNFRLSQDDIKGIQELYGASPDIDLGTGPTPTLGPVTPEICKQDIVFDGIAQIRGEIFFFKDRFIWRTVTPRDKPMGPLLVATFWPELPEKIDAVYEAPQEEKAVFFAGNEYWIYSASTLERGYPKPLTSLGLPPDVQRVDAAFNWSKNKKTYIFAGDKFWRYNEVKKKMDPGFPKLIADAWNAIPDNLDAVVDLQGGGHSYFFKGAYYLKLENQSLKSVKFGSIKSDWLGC
Experimental: (§1) Several hydroxamates and salts thereof were analyzed in in vitro assays to determine their ability to inhibit the MMP cleavage of peptide substrates. Inhibition (Ki) and IC50 constants were calculated from the assayed hydroxamate-MMP interactions.
(§2) Human recombinant MMP-1, MMP-2, MMP-9, MMP-13, and MMP-14 were used in this assay. All enzymes were prepared in Assignee's laboratories following usual laboratory procedures. Protocols for the preparation and use of these enzymes are available in the scientific literature. See, e.g., Enzyme Nomenclature (Academic Press, San Diego, Calif., 1992) (and the citations therein). See also, Frije et al., J. Biol. Chem., 26(24), 16766-73 (1994).
The MMP-2 proenzyme was purified by gelatin Sepharose chromatography from MMP-2-transfected p2AHT2 cells provided by Dr. Gregory Goldberg of Washington University (St. Louis, Mo.).
(§3) All MMPs were activated using 4-aminophenylmercuric acetate (“APMA”, Sigma Chemical, St. Louis, Mo.) or trypsin. MMP-9 also was activated using human recombinant MMP-3 (purified in Assignee's laboratory following standard cloning and purification techniques).
(§4) Two fluorogenic, methoxycoumarin-containing polypeptide substrates were used in the MMP inhibition assays:
(§5) MCA-ArgProLeuGlyLeuDpaAlaArgGluArgNH2 (II)
(§6) Here, “Dpa” is 3-(2,4-dinitrophenyl)-L-2,3-diaminopropionyl group, and “MCA” is 7-methoxycoumarin-4-yl acetyl. Substrate (I) was purchased from Baychem (Redwood City, Calif.), and substrate II was prepared Assignee's laboratory. Substrate I was used in the IC50 determination assays, while substrate II was used in the Ki determination assays. In the absence of MMP inhibitory activity, either substrate is cleaved at the Gly-Leu peptide bond. This cleavage separates the highly fluorogenic peptide from the 2,4-dinitrophenyl quencher, thus resulting in increase of fluorescent intensity.
(§7) The stock solutions of the assayed hydroxamates (or salts thereof) were prepared in 1% dimethyl sulfoxide (DMSO). These stock solutions were diluted in Buffer A (100 mM Tris-HCl, 100 mM NaCl, 10 mM CaCl2, 0.05% polyoxyethylene 23 lauryl ether, pH 7.5) to obtain solutions with different hydroxamate concentrations, i.e., assay solutions with different concentrations of the assayed MMP inhibitory compound. The experiment controls contained the same amount of Buffer A/DMSO as the assayed sample, but contained no hydroxamate (or salt thereof).
The assays from which the Ki determinations were made were performed as follows. The assayed hydroxamate samples were incubated in separate wells of untreated white polystyrene plates (Nunc Nalgene International, Rochester, N.Y.), and analyzed on a Tecan SpectraFlour Plus plate reader. The excitation wavelength was 330 nm, and the emission wavelength—420 nm. All samples (assayed hydroxamates and controls) were incubated in separate plate wells at room temperature for 1 hr in the presence of 4 μM of MMP substrate (II). In the absence of MMP inhibitory activity, substrate II was cleaved at the Gly-Leu bond resulting in an increase of relative fluorescence. Inhibition was observed as a reduced rate of this increase in relative fluorescence. The various hydroxamates were analyzed using a single low enzyme concentration with a single substrate concentration fixed at or below the Km. This protocol is a modification of method by Knight et al., FEBS Lett., 296(3), 263-266 (1992). Apparent inhibitory constants were determined by non-linear regression of reaction velocity as a function of inhibitor and enzyme concentration using Morrison's equation, as described by Kuzmic, Anal. Biochem. 286, 45-50 (2000). […] Since the substrate concentration was chosen to be at or below the Km, the apparent Ki's from this analysis were reported as Ki's without correction for the influence of substrate.

[2] = biological target: T2, Human recombinant MMP-14 (Homo sapiens, UniProt P50281); experiment: as above; format: biochemical
T2 construct: The catalytic domain enzyme was expressed in E. coli inclusion bodies, solubilized in urea; made in house
Experimental: as §1, §2
The MMP-14 full length cDNA was provided by Dr. Gregory Goldberg of Washington University (St. Louis, Mo.). The catalytic domain enzyme was expressed in E. coli inclusion bodies, solubilized in urea, purified on a preparative […] reverse phase HPLC column, and then refolded in the presence of zinc acetate and purified for use.
as §3, §4, §5, §6, §7
The assays from which the Ki determinations were made were performed as follows. The assayed hydroxamate samples were incubated in separate wells of untreated white polystyrene plates (Nunc Nalgene International, Rochester, N.Y.), and analyzed on a Tecan SpectraFlour Plus plate reader. The excitation wavelength was 330 nm, and the emission wavelength—420 nm. All samples (assayed hydroxamates and controls) were incubated in separate plate wells at room temperature for 1 hr in the presence of 4 μM of MMP substrate (II). In the absence of MMP inhibitory activity, substrate II was cleaved at the Gly-Leu bond resulting in an increase of relative fluorescence. Inhibition was observed as a reduced rate of this increase in relative fluorescence. The various hydroxamates were analyzed using a single low enzyme concentration with a single substrate concentration fixed at or below the Km. This protocol is a modification of method by Knight et al., FEBS Lett., 296(3), 263-266 (1992). Apparent inhibitory constants were determined by non-linear regression of reaction velocity as a function of inhibitor and enzyme concentration using Morrison's equation, as described by Kuzmic, Anal. Biochem. 286, 45-50 (2000). Modifications were made in the non-linear regression method to allow a common control reaction rate and effective enzyme concentration to be shared between all dose-response relationships on a given assay plate. […]

[3] = substrate (II) 4 μM, 1 hr room temperature, apparent Ki, values in parenthesis

Compound | Ki ([1]; value in parenthesis) [nM] | Ki ([2]; value in parenthesis) [nM] | Ki ([1]; value in parentheses) [nM] | Ki ([2]; value in parentheses) [nM] | also measured
O=C(NO)C1(S(=O)(=O)c2ccc(OCCCc3cccc(-c4ccc(OC(F)(F)F)cc4)c3)cc2)CCOCC1 [Example 147] | > 10000 | > 10000 | – | – | –
O=C(NO)C1(S(=O)(=O)c2ccc(OCCCc3cccc(-c4ccc5ccccc5c4)c3)cc2)CCOCC1 [Example 629] | – | – | 1020 | > 10000 | –
O=C(CCCc1ccc(S(=O)(=O)C2(C(=O)NO)CCOCC2)cc1)c1cccc(-c2ccccc2)c1 [Example 219] | 105 | 7940 | – | – | –
O=C(NO)C1(S(=O)(=O)c2ccc(OCCc3cccc(-c4ccccn4)c3)cc2)CCOCC1 [Example 40] | – | – | – | – | Ki [1, 3]: 216 nM; Ki [2, 3]: > 10000 nM
O=C(NO)C1(S(=O)(=O)c2ccc(OCCCn3nnc(-c4ccc(OC(F)(F)F)cc4)n3)cc2)CCN(CC2CC2)CC1 [Example 53] | – | – | – | – | Ki [1, 3]: 697 nM; Ki [2, 3]: > 10000 nM
COCCN1CCC(C(=O)NO)(S(=O)(=O)c2ccc(OCCCc3nc(-c4ccccc4OC(F)(F)F)no3)cc2)CC1 [Example 152] | 149 | > 10000 | – | – | –
O=C(NO)C1(S(=O)(=O)c2ccc(OCCc3cccc(-c4ccc(F)cc4)c3)cc2)CCOCC1 [Example 123] | 793 | > 10000 | – | – | –
CCc1ccccc1-c1noc(CCCOc2ccc(S(=O)(=O)C3(C(=O)NO)CCN(CCOC)CC3)cc2)n1 [Example 155] | 37.9 | 9370 | – | – | –
O=C(NO)C1(S(=O)(=O)c2ccc(OCCCc3cccc(-c4ccc(F)cc4)c3)cc2)CCN(C2CC2)CC1 [Example 139] | 1410 | > 10000 | – | – | –
COCCN1CCC(C(=O)NO)(S(=O)(=O)c2ccc(OCCCn3nnc(-c4ccc(OC(F)(F)F)cc4)n3)cc2)CC1 [Example 48] | – | – | – | – | Ki [1, 3]: 228 nM
O=C(NO)C1(S(=O)(=O)c2ccc(OCCCn3nnc(-c4ccc(OC(F)(F)F)cc4)n3)cc2)CCN(C2CC2)CC1 [Example 49] | – | – | – | – | Ki [1, 3]: 440 nM; Ki [2, 3]: > 10000 nM
O=C(NO)C1(S(=O)(=O)c2ccc(OCCc3cccc(-c4ccccc4F)c3)cc2)CCOCC1 [Example 115] | 807 | > 10000 | – | – | –
O=C(COc1ccc(S(=O)(=O)C2(C(=O)NO)CCOCC2)cc1)c1cccc(-c2ccccc2)c1 [Example 563] | – | – | 70.1 | 4400 | –
O=C(NO)C1(S(=O)(=O)c2ccc(OCCCc3cccc(-c4ccc(F)cc4F)c3)cc2)CCOCC1 [Example 630] | – | – | 2070 | > 10000 | –
CN(C(=O)CCCOc1ccc(S(=O)(=O)C2(C(=O)NO)CCOCC2)cc1)c1ccc(OC(F)(F)F)cc1 [Example 249] | 333 | > 10000 | – | – | –
CCN1CCC(C(=O)NO)(S(=O)(=O)c2ccc(OCCCSc3nc4ccccc4s3)cc2)CC1 [Example 591] | – | – | – | 8740 | –
O=C(NCCOc1ccc(S(=O)(=O)C2(C(=O)NO)CCOCC2)cc1)c1cc2ccccc2[nH]1 [Example 599] | – | – | 0.38 | – | –

Further lines, with some results ahead:

Ki ([1]; value in parenthesis) [nM] | Ki ([2]; value in parenthesis) [nM] | Ki ([1]; value in parentheses) [nM] | Ki ([2]; value in parentheses) [nM] | Compound | also measured
– | – | 4960 | > 10000 | O=C(NO)C1(S(=O)(=O)c2ccc(OCCCc3cccc(-c4csc5ccccc45)c3)cc2)CCOCC1 [Example 631] | –
159 | 5510 | – | – | O=C(NO)C1(S(=O)(=O)c2ccc(OCCCc3cccc(-c4cccnc4)c3)cc2)CCOCC1 [Example 150] | –
978 | > 10000 | – | – | Cc1ccccc1-c1cccc(CCCOc2ccc(S(=O)(=O)C3(C(=O)NO)CCOCC3)cc2)c1 [Example 164] | –
84.1 | 2530 | – | – | O=C(NO)C1(S(=O)(=O)c2ccc(OCCCc3cccc(-c4ccncc4)c3)cc2)CCOCC1 [Example 149] | –
– | – | 4580 | > 10000 | O=C(NO)C1(S(=O)(=O)c2ccc(OCCCc3cccc(-c4cc5ccccc5s4)c3)cc2)CCOCC1 [Example 633] | –
– | – | 51.8 | > 10000 | O=C(NO)C1(S(=O)(=O)c2ccc(OCCCc3cncc(-c4ccccc4)c3)cc2)CCOCC1 [Example 524] | –
– | – | 32.1 | 6290 | O=C(NO)C1(S(=O)(=O)c2ccc(OCCCc3cncc(Br)c3)cc2)CCOCC1 [Example 522] | –
1760 | – | – | – | O=C(NO)C1(S(=O)(=O)c2ccc(OCCCc3cccc(-c4cccc(F)c4)c3)cc2)CCOCC1 [Example 161] | –
